From patent US12655124B2, “Heterocyclic compounds as modulators of stimulator of interferon genes (STING)” (RYVU THERAPEUTICS S.A., priority 2019, dated 2026)
Structures can show the parent of a compound that is named as a salt.

Target: human STING (Homo sapiens, UniProt Q86WV6)
Experiment: Fluorescence Thermal Shift assay (hSTING FTS binding assay);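 further: STING preincubated with compound for 20 min in HEPES NaCl buffer pH 7.5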
Conditions: ΔTm, STING 0.1 mg/mL, SyproOrange, 25 to 99° C.
Experimental: Fluorescence Thermal Shift Assay Compounds of the present invention were tested for binding to human STING in Fluorescence Thermal Shift assay. […] Final STING concentration was 0.1 mg/mL. Thermal unfolding was performed in Real-Time PCR QuantStudio 6 Flex System (Applied Biosystems), from 25 to 99° C., with continuous ramp mode and ramp rate 0.033° C./s. The data were analyzed using Protein Thermal Shift Software (ThermoFisher).

Chain of human STING (Q86WV6 whole entry H232R): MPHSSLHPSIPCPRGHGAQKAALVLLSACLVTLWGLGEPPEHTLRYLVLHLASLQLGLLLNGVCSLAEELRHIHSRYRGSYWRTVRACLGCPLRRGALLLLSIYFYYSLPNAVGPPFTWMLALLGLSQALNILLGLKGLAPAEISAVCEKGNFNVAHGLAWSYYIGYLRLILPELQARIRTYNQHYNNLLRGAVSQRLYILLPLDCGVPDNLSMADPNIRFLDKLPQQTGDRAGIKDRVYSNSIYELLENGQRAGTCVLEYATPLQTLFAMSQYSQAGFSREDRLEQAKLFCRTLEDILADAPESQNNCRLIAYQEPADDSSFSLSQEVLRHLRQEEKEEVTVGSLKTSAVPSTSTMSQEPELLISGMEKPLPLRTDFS

| SMILES | hSTING FTS binding assay (ΔT ° C.) |
| --- | --- |
| Cc1ccc(N2CCC[C@H](N(Cc3ccnc(C)c3)Cc3cn(C)c4cc(N5CC[C@@H](O)C5)ccc4c3=O)C2)cn1 [Example 23, 7-[(3R)-3-hydroxypyrrolidin-1-yl]-1-methyl-3-({[(3S)-1-(6-methylpyridin-3-yl)piperidin-3-yl][(2-methylpyridin-4-yl)methyl]amino}methyl)-1,4-dihydroquinolin-4-one] | ++ (10<ΔTm<20° C.) |
| CNC1CCN(c2cc3c(cc2F)c(=O)c(CN(Cc2ccnc(C)c2)[C@H]2CCCN(c4ccc(C)nc4)C2)cn3C2CC2)CC1.Cl [Example 19, 1-cyclopropyl-6-fluoro-7-[4-(methylamino)piperidin-1-yl]-3-({[(3S)-1-(6-methylpyridin-3-yl)piperidin-3-yl][(2-methylpyridin-4-yl)methyl]amino}methyl)-1,4-dihydroquinolin-4-one Hydrochloride] | +++ (ΔTm≥20° C.) |
| Cc1cc(CN(Cc2cn(C3COC3)c3ccccc3c2=O)[C@H]2CCCN(c3ccc(N)nc3)C2)ccn1 [Example 35, 3-({[(3S)-1-(6-aminopyridin-3-yl)piperidin-3-yl][(2-methylpyridin-4-yl)methyl]amino}methyl)-1-(oxetan-3-yl)-1,4-dihydroquinolin-4-one] | +++ (ΔTm≥20° C.) |
| Cc1cc(CN(Cc2cn(C3CC3)c3cc(N4CCC[C@H](O)C4)c(F)cc3c2=O)[C@H]2CCCN(c3cccnc3)C2)ccn1.Cl [Example 86, 1-cyclopropyl-6-fluoro-7-[(3S)-3-hydroxypiperidin-1-yl]-3-({[(2-methylpyridin-4-yl)methyl][(3S)-1-(pyridin-3-yl)piperidin-3-yl]amino}methyl)-1,4-dihydroquinolin-4-one Hydrochloride] | +++ (ΔTm≥20° C.) |
| Cc1ccc(N2CCC[C@H](N(Cc3ccnc(C)c3)Cc3cn(C4CC4)c4cc(N5CC[C@@H](N)C(F)(F)C5)c(F)cc4c3=O)C2)cn1.Cl (single isomer, unassigned) [Example 56] | +++ (ΔTm≥20° C.) |
| Cc1ccc(N2C[C@@H](F)C[C@H](N(Cc3ccnc(C)c3)Cc3cn(C4CC4)c4cc(OCCO)c(F)cc4c3=O)C2)cn1 [Example 75, 1-cyclopropyl-6-fluoro-3-({[(3S,5S)-5-fluoro-1-(6-methylpyridin-3-yl)piperidin-3-yl][(2-methylpyridin-4-yl)methyl]amino}methyl)-7-(2-hydroxyethoxy)-1,4-dihydroquinolin-4-one] | +++ (ΔTm≥20° C.) |
| Cc1ccc(N2CCC[C@H](N(Cc3ccnc(C)c3)Cc3cn(C4CC4)c4cc(N5CC[C@H](N)C5)c(F)cc4c3=O)C2)cn1.Cl [Example 13, 7-[(3S)-3-Aminopyrrolidin-1-yl]-1-cyclopropyl-6-fluoro-3-({[(3S)-1-(6-methylpyridin-3-yl)piperidin-3-yl][(2-methylpyridin-4-yl)methyl]amino}methyl)-1,4-dihydroquinolin-4-one Hydrochloride] | +++ (ΔTm≥20° C.) |
| Cc1ccc(N2CCC[C@H](N(Cc3ccnc(N)c3)Cc3cn(C4CC4)c4cc(F)c(F)cc4c3=O)C2)cn1 [Example 5, 3-({[(2-Aminopyridin-4-yl)methyl][(3S)-1-(6-methylpyridin-3-yl)piperidin-3-yl]amino}methyl)-1-cyclopropyl-6,7-difluoro-1,4-dihydroquinolin-4-one Hydrochloride] | +++ (ΔTm≥20° C.) |
| Cc1ccc(N2CCC[C@H](N(Cc3ccnc(C)c3)Cc3cn(C4CC4)c4cc(N5CCC(C(=O)O)CC5)c(F)cc4c3=O)C2)cn1 [Example 67, 1-[1-cyclopropyl-6-fluoro-3-({[(3S)-1-(6-methylpyridin-3-yl)piperidin-3-yl][(2-methylpyridin-4-yl)methyl]amino}methyl)-4-oxo-1,4-dihydroquinolin-7-yl]piperidine-4-carboxylic Acid] | +++ (ΔTm≥20° C.) |
| Cc1cc(CN(Cc2cn(C)c3ccccc3c2=O)[C@H]2CCCN(c3cccc(N)c3)C2)ccn1.Cl [Example 1, 3-({[(3S)-1-(3-Aminophenyl)piperidin-3-yl][(2-methylpyridin-4-yl)methyl]amino}methyl)-1-methyl-1,4-dihydroquinolin-4-one Hydrochloride] | + (ΔTm≤10° C.) |
| CNCCOc1cc2c(cc1F)c(=O)c(CN(Cc1ccnc(C)c1)[C@H]1CCCN(c3ccc(C)nc3)C1)cn2C1CC1.Cl [Example 11, 1-Cyclopropyl-6-fluoro-7-[2-(methylamino)ethoxy]-3-({[(3S)-1-(6-methylpyridin-3-yl)piperidin-3-yl][(2-methylpyridin-4-yl)methyl]amino}methyl)-1,4-dihydroquinolin-4-one Hydrochloride] | +++ (ΔTm≥20° C.) |
| Cc1ccc(N2CCC[C@H](N(Cc3ccnc(C)c3)Cc3cn(C4CC4)c4cc(N5CC[C@@H](N)C5)c(F)cc4c3=O)C2)cn1.Cl [Example 12, 7-[(3R)-3-Aminopyrrolidin-1-yl]-1-cyclopropyl-6-fluoro-3-({[(3S)-1-(6-methylpyridin-3-yl)piperidin-3-yl][(2-methylpyridin-4-yl)methyl]amino}methyl)-1,4-dihydroquinolin-4-one Hydrochloride] | +++ (ΔTm≥20° C.) |
| Cc1cc(CN(Cc2cn(C3CC3)c3cc(N4CC[C@@H](O)C4)c(F)cc3c2=O)[C@H]2CCCN(c3cccnc3)C2)ccn1 [Example 78, 1-cyclopropyl-6-fluoro-7-[(3R)-3-hydroxypyrrolidin-1-yl]-3-({[(2-methylpyridin-4-yl)methyl][(3S)-1-(pyridin-3-yl)piperidin-3-yl]amino}methyl)-1,4-dihydroquinolin-4-one] | +++ (ΔTm≥20° C.) |
| Cc1ccc(N2CCC[C@H](N(Cc3ccnc(C)c3)Cc3cn(C4CC4)c4cc(N5CC(N)C6(CC6)C5)c(F)cc4c3=O)C2)cn1.Cl (stereo partly drawn) [Example 22, 7-{7-amino-5-azaspiro[2.4]heptan-5-yl}-1-cyclopropyl-6-fluoro-3-({[(3S)-1-(6-methylpyridin-3-yl)piperidin-3-yl][(2-methylpyridin-4-yl)methyl]amino}methyl)-1,4-dihydroquinolin-4-one Hydrochloride] | +++ (ΔTm≥20° C.) |
| Cc1ccc(N2CCC[C@H](N(Cc3ccnc(C)c3)Cc3cn(C4CC4)c4cc(N)c(F)cc4c3=O)C2)cn1 [Example 7, 7-Amino-1-cyclopropyl-6-fluoro-3-({[(3S)-1-(6-methylpyridin-3-yl)piperidin-3-yl][(2-methylpyridin-4-yl)methyl]amino}methyl)-1,4-dihydroquinolin-4-one] | +++ (ΔTm≥20° C.) |
| Cc1ccc(N2CCC[C@H](N(Cc3ccnc(C)c3)Cc3cn(C4CC4)c4cc(N5CC[C@@H](O)C5)c(F)cc4c3=O)C2)cn1.Cl [Example 14, 1-Cyclopropyl-6-fluoro-7-[(3R)-3-hydroxypyrrolidin-1-yl]-3-({[(3S)-1-(6-methylpyridin-3-yl)piperidin-3-yl][(2-methylpyridin-4-yl)methyl]amino}methyl)-1,4-dihydroquinolin-4-one Hydrochloride] | +++ (ΔTm≥20° C.) |
| Cc1ccc(N2CCC[C@H](N(Cc3ccnc(C)c3)Cc3cn(C4CC4)c4cc(OCCN)c(F)cc4c3=O)C2)cn1 [Example 10, 7-(2-Aminoethoxy)-1-cyclopropyl-6-fluoro-3-({[(3S)-1-(6-methylpyridin-3-yl)piperidin-3-yl][(2-methylpyridin-4-yl)methyl]amino}methyl)-1,4-dihydroquinolin-4-one] | +++ (ΔTm≥20° C.) |
| Cc1ccc(N2CCC[C@H](N(Cc3ccnc(C)c3)Cc3cn(C4CC4)c4cc(N5CCC(N)C(F)(F)C5)c(F)cc4c3=O)C2)cn1 (stereo partly drawn) [Example 26, 7-(4-amino-3,3-difluoropiperidin-1-yl)-1-cyclopropyl-6-fluoro-3-({[(3S)-1-(6-methylpyridin-3-yl)piperidin-3-yl][(2-methylpyridin-4-yl)methyl]amino}methyl)-1,4-dihydroquinolin-4-one] | +++ (ΔTm≥20° C.) |
| COCCn1cc(CN(Cc2ccnc(C)c2)[C@H]2CCCN(c3ccc(N)nc3)C2)c(=O)c2ccccc21.Cl [Example 21, 3-({[(3S)-1-(6-aminopyridin-3-yl)piperidin-3-yl][(2-methylpyridin-4-yl)methyl]amino}methyl)-1-(2-methoxyethyl)-1,4-dihydroquinolin-4-one Hydrochloride] | +++ (ΔTm≥20° C.) |
| Cc1cc(CN(Cc2cn(C(C)C)c3ccccc3c2=O)[C@H]2CCCN(c3ccc(N)nc3)C2)ccn1.Cl [Example 34, 3-({[(3S)-1-(6-aminopyridin-3-yl)piperidin-3-yl][(2-methylpyridin-4-yl)methyl]amino}methyl)-1-(propan-2-yl)-1,4-dihydroquinolin-4-one Hydrochloride] | +++ (ΔTm≥20° C.) |
| Cc1ccc(N2CCC[C@H](N(Cc3ccnc(C)c3)Cc3cn(C)c4cc(N5CCC(N)CC5)ccc4c3=O)C2)cn1.Cl [Example 6, 7-(4-Aminopiperidin-1-yl)-1-methyl-3-({[(3S)-1-(6-methylpyridin-3-yl)piperidin-3-yl][(2-methylpyridin-4-yl)methyl]amino}methyl)-1,4-dihydroquinolin-4-one Hydrochloride] | ++ (10<ΔTm<20° C.) |
| Cc1ccc(N2CCC[C@H](N(Cc3ccnc(C)c3)Cc3cn(C4CC4)c4cc(N5CCC[C@@H](O)C5)c(F)cc4c3=O)C2)cn1.Cl [Example 28, 1-cyclopropyl-6-fluoro-7-[(3R)-3-hydroxypiperidin-1-yl]-3-({[(3S)-1-(6-methylpyridin-3-yl)piperidin-3-yl][(2-methylpyridin-4-yl)methyl]amino}methyl)-1,4-dihydroquinolin-4-one Hydrochloride] | +++ (ΔTm≥20° C.) |
